Experimental data published in US20080019931A1, “Method and composition for producing enhanced fingernails” (PROSTRONG, INC, priority 2004, published 2008).

Assay: Solubility in water
Format: physicochemical

O=P([O-])([O-])P(=O)([O-])[O-].[Ca+2].[Ca+2] [Calcium Hypophosphate]
solubility in water: soluble in water
